Key:
Format in all cases: cell-based
[1] = system: TNFα release from THP-1 cells; test: Primary screen (Example 1a): LPS-stimulated TNFα release from THP-1 cells, HTRF; details: Homo sapiens, 100 ng/mL LPS, 3 h, normalised to 50 μM Batimastat, read-out: Primary Screen XC50 TNFα
Procedure: (§1) Two separate screens to identify novel small molecule inhibitors of iRhom2/ADAM17 activity were developed. […] Therefore, the primary screen for small molecule inhibitors of iRhom2/ADAM17 was a screen for inhibitors that blocked the release of TNFα from LPS-stimulated THP-1 human myeloid cells, a process that depends on iRhom2 and ADAM17. Since the release of TNFα from THP-1 cells can be blocked at many stages of the LPS/TLR4/iRhom2/ADAM17 pathway, a secondary screen was performed for another iRhom2/ADAM17 selective substrate, Kit-ligand 2 (KL-2) (Maretzky T et al. (July 2013), “iRhom2 controls the substrate selectivity of stimulated ADAM17-dependent ectodomain shedding”, PNAS 110(28): 11433-11438) in a different human cell type, human embryonic kidney cells (HEK 293).
THP-1 cells were plated in 384 or 1,536 wells and transferred on the ultra-high throughput screening (uHTS) platform Mark III, and TNFα shedding was initiated by LPS stimulation of THP-1 cells. The extent of released TNFα was detected with the corresponding HTRF antibodies labeled with europium cryptate (donor) and d2 (acceptor). The HTRF signal was generated by proximity of europium cryptate and d2. All detection reagents were purchased from Cisbio. TNFα detection was performed according to the manufacturer's protocol (Product Insert for Cisbio TNFα (h) Kit Part #62HTNFAPEG & 62HTNFAPEH;
7.5 nL compound and controls in DMSO [10 μM in assay; 0.25% DMSO in 3 [μL Assay] were dissolved in 2 μL cell suspension [2.4E6/mL; 4800 cells/well; culture w/o PenStrep], pre-incubated at 37° C., 5% CO2, for 15 min with 1 μL LPS [100 ng/mL in 3 μL assay]. The cells were incubated at 37° C., 5% CO2, for 3 h with 2 μL of the HTRF-mix [1:300 f.c.]. After an incubation at room temperature for 2 h or longer, the HTRF readout was performed. Then data evaluation for normalization against the 50 μM Batimastat control (=100% […]) was applied. As an additional control, 300 nM Batimastat was used to monitor performance of cells and assay sensitivity over time.

[2] = system: TGFα release from HEK-293 cells; test: Counter screen (Example 4a): PMA-stimulated TGFα release from HEK-293 cells, AP readout; details: Homo sapiens, HEK293, HEK-293 cells expressing TGFα-AP, PMA 100 ng/mL, 2 h, read-out: Counter Screen XC50 TGFα
Procedure: A tertiary counterscreen was also performed to monitor the release of TGFα, which is a substrate of iRhom1/ADAM17 and iRhom2/ADAM17, so its release should not be blocked by an iRhom2-selective inhibitor (Maretzky T et al. (July 2013), “iRhom2 controls the substrate selectivity of stimulated ADAM17-dependent ectodomain shedding”, PNAS 110(28): 11433-11438; and Li X et al. (May 2015), “iRhoms 1 and 2 are essential upstream regulators of ADAM17-dependent EGFR signaling”, PNAS 112(19): 6080-6085).
(§2) First, expression plasmids for alkaline phosphatase (AP)-fused KL2 and TGFα were designed and generated through gene synthesis followed by subcloning into the pcDNA3.1(+)/Hygro expression vector. […] Subsequently, DNA amplifications were performed to obtain sufficient amounts of the expression vectors. The quality of DNA and gene sequences were confirmed through restriction digest and Sanger sequencing. In parallel, cell culture of THP-1 and HEK-293 cells was initiated. Master and working cell banks were prepared. Both cell lines were scaled up and transfected with the respective constructs by electroporation. During cell culturing, cell density and viability were monitored to ensure optimal conditions for the transfections. After PMA stimulation, AP-coupled KL2 or TGFα were detected by measurement of AP activity in the supernatant. […] In contrast, THP-1 cells turned out to be not a suitable transfection host resulting in a loss of cell viability after transfection. The decision was made to proceed with HEK-293 for both selectivity assays and to establish polyclonal cell lines stably expressing AP-coupled KL2 or TGFα.
(§3) After electroporation, cells were further cultured in presence of selection antibiotics, hygromycin B, to generate stably transfected polyclonal cell pools. For both assays, KL2 and TGFα shedding, the respective selected pool turned out to be suitable. Final assay conditions were determined for the selected pools. For all experiments, batimastat (30 μM) was used as positive control for full inhibition of KL2 or TGFα shedding.
(§4) 60 μL of cells (20,000/well) were added to a sterile 384-well plate. After incubation overnight at 37° C. (5% CO2), 50 μL medium were removed and 20 μL of prediluted compounds were added to the cells. After incubation for 15 min, 20 μL of PMA (100 ng/mL final conc.) were added. The cells were incubated for 2 h at 37° C. (5% CO2). Then, 20 μL of the supernatant was transferred to a fresh plate and 20 μL of pNPP (5 mM final conc.) was added. The AP reaction was performed for 1 h at RT. The reaction was stopped by addition of 20 μL of NaOH (1 M final conc.) and the absorbance of pNP was measured at 405 nm.

[3] = system: KL2 release from HEK-293 cells; test: Secondary screen (Example 3a): PMA-stimulated KL2 release from HEK-293 cells, AP readout; details: Homo sapiens, HEK293, HEK-293 cells expressing KL2-AP, PMA 500 ng/mL, 2 h, read-out: Secondary Screen XC50 KL2
Procedure: as §1, §2, §3
as §4, with “of cells (40,000/well) were added” for “of cells (20,000/well) were added”, “of PMA (500 ng/mL final” for “of PMA (100 ng/mL final”, “was added. AP reaction” for “was added. The AP reaction”

CC(C)c1nccc(-c2c(-c3ccccc3)ncn2CCc2c[nH]cn2)n1 [Compound 37]
IC50 [1]: 4.99 µM
IC50 [2]: > 128 µM
IC50 [3]: > 128 µM

Cc1ccc(F)c(C(=O)N2CCc3nnc(CCc4ccccc4)n3CC2)c1F [Compound 17]
IC50 [1]: 15.2 µM
IC50 [2]: > 128 µM
IC50 [3]: > 128 µM

O=C(c1ccccc1F)N1CCN(Cc2cccc(Br)c2)CC1 [Compound 6]
IC50 [1]: 12.4 µM
IC50 [2]: > 128 µM
IC50 [3]: > 128 µM

CC(C)c1nccc(-c2c(-c3ccccc3)ncn2C[C@H]2CCCO2)n1 [Compound 41]
IC50 [1]: 11.6 µM
IC50 [2]: > 128 µM
IC50 [3]: > 128 µM

Cc1ccccc1C(=O)N1CCN(Cc2ccccc2)CC1 [Compound 3]
IC50 [1]: 12.3 µM
IC50 [2]: > 128 µM
IC50 [3]: > 128 µM

CCC(C)NC(=O)c1cc(C(=O)c2ccccc2C)c[nH]1 (stereo not drawn) [Compound 34]
IC50 [1]: 10.2 µM
IC50 [2]: > 128 µM
IC50 [3]: > 128 µM

c1ccc(-c2ncn(CCCc3cccnc3)c2-c2ccncc2)cc1 [Compound 20]
IC50 [1]: < 0.802 µM
IC50 [2]: > 128 µM
IC50 [3]: > 128 µM

Cc1n[nH]c2c1C(c1ccccc1OC(F)F)C(C#N)=C(N)O2 (stereo not drawn) [Compound 31]
IC50 [1]: 34.5 µM
IC50 [2]: > 128 µM
IC50 [3]: 32.2 µM

O=C(c1c(F)cccc1F)N1CCN(Cc2ccc(Cl)s2)CC1 [Compound 7]
IC50 [1]: 14.1 µM
IC50 [2]: > 128 µM
IC50 [3]: > 128 µM

COc1ccccc1-c1c(-c2ccccc2C)ncn1C1CC(C)(C)N(C)C(C)(C)C1 [Compound 39]
IC50 [1]: 41.5 µM
IC50 [2]: > 128 µM
IC50 [3]: > 128 µM

COCC(=O)N1CCCc2ccc(NC(=O)Nc3ccc(F)cc3)cc21 [Compound 23]
IC50 [1]: 3.7 µM
IC50 [2]: > 128 µM
IC50 [3]: > 128 µM

Cc1ccccc1C(=O)N1CCN(Cc2cccc(Cl)c2)CC1 [Compound 5]
IC50 [1]: 1.4 µM
IC50 [2]: > 128 µM
IC50 [3]: > 128 µM

COc1ccc(-c2cnc3sc(NCCCO)nn23)cc1OC [Compound 32]
IC50 [1]: 68.7 µM
IC50 [2]: > 128 µM
IC50 [3]: 66.5 µM

C/C(=C\c1c(C)[nH]c2ccccc12)[N+](=O)[O-] [Compound 30]
IC50 [1]: 24.3 µM
IC50 [2]: > 128 µM
IC50 [3]: 12.1 µM

Cc1csc(CN2CCN(C(=O)c3c(F)cccc3Cl)CC2)n1 [Compound 8]
IC50 [1]: 1.9 µM
IC50 [2]: > 128 µM
IC50 [3]: > 128 µM

Cc1ccn(CCCn2cnc(-c3ccccc3)c2-c2ccncc2)n1 [Compound 19]
IC50 [1]: 1.2 µM
IC50 [2]: > 128 µM
IC50 [3]: > 128 µM

Cc1nc[nH]c1-c1nccn1-c1ccc2c(c1)CCC2 [Compound 42]
IC50 [1]: 31 µM
IC50 [2]: > 128 µM
IC50 [3]: > 128 µM

CC(C)c1nccc(-c2c(-c3ccccc3)ncn2C[C@H]2CCCN2)n1 [Compound 40]
IC50 [1]: 21 µM
IC50 [2]: > 128 µM
IC50 [3]: > 128 µM

O=C(CCn1sc2ccccc2c1=O)Nc1ccc2cc[nH]c2c1 [Compound 33]
IC50 [1]: 5.1 µM
IC50 [2]: 24.1 µM
IC50 [3]: 6 µM

OC(Cc1ccccc1)Cn1cnc(-c2ccccc2)c1-c1cccnc1 (stereo not drawn) [Compound 38]
IC50 [1]: 108 µM
IC50 [2]: > 128 µM
IC50 [3]: > 128 µM

CCC(Cn1cnc(-c2ccccc2)c1-c1ccncc1)N1CCOCC1 (stereo not drawn) [Compound 18]
IC50 [1]: 21.8 µM
IC50 [2]: > 128 µM
IC50 [3]: > 128 µM

O=C(c1c[nH]c(-c2nnc3n2CCCCC3)c1)c1cc(F)ccc1O [Compound 35]
IC50 [1]: 28.2 µM
IC50 [2]: > 128 µM
IC50 [3]: > 128 µM

COc1cccc(OC)c1C(=O)N1CCN(Cc2cccc(Br)c2)CC1 [Compound 11]
IC50 [1]: 24.7 µM
IC50 [2]: > 128 µM
IC50 [3]: > 128 µM

Fc1ccc(Nc2nc3nonc3nc2Nc2ccc(F)cc2F)c(F)c1 [Compound 26]
IC50 [1]: 1.4 µM
IC50 [2]: 71.2 µM
IC50 [3]: 22.3 µM

Cc1ccc(-n2ncc3c(NC4CCCCC4)ncnc32)c(C)c1 [Compound 29]
IC50 [1]: < 0.802 µM
IC50 [2]: > 128 µM
IC50 [3]: > 128 µM

C=C(C)Cn1c(=O)nc(N)c2c(-c3ccc(OC)cc3)csc21 [Compound 27]
IC50 [1]: < 0.802 µM
IC50 [2]: > 128 µM
IC50 [3]: > 128 µM

CCC1CN(C(=O)c2ccc3cc[nH]c3c2)CCC(=O)N1Cc1ccccc1 (stereo not drawn) [Compound 15]
IC50 [1]: < 0.802 µM
IC50 [2]: > 128 µM
IC50 [3]: > 128 µM

CC(=O)c1cccc(Nc2nc(NCC3CCCO3)c3ccccc3n2)c1 (stereo not drawn) [Compound 25]
IC50 [1]: 5.6 µM
IC50 [2]: > 128 µM
IC50 [3]: 55 µM

CNc1ccc2ncc(-c3cccc(O)c3)n2n1 [Compound 22]
IC50 [1]: 27.8 µM
IC50 [2]: > 128 µM
IC50 [3]: 8.8 µM

CCCn1c(=O)nc(N)c2c(-c3ccc(OC)cc3)csc21 [Compound 28]
IC50 [1]: 1.7 µM
IC50 [2]: > 128 µM
IC50 [3]: > 128 µM

Cc1ccccc1C(=O)N1CCC(Cc2ccccc2)CC1 [Compound 1]
IC50 [1]: 10.2 µM
IC50 [2]: > 128 µM
IC50 [3]: 2.6 µM

O=C(c1cccs1)N1CCC(Cc2ccccc2)CC1 [Compound 2]
IC50 [1]: < 0.802 µM
IC50 [2]: > 128 µM
IC50 [3]: > 128 µM

O=C(c1c(Cl)cccc1Cl)N1CCN(Cc2ccc3c(c2)OCO3)CC1 [Compound 4]
IC50 [1]: 30.8 µM
IC50 [2]: > 128 µM
IC50 [3]: > 128 µM

O=C(NN1CCN(Cc2ccccc2)CC1)C12CC3CC(CC(C3)C1)C2 [Compound 12]
IC50 [1]: 8.9 µM
IC50 [2]: > 128 µM
IC50 [3]: > 128 µM

O=C(c1ccccc1F)N1CCN(Cc2nc(C3CC3)cs2)CC1 [Compound 9]
IC50 [1]: 27.8 µM
IC50 [2]: > 128 µM
IC50 [3]: > 128 µM

Cc1ccccc1C(=O)N1CCN(c2ccc(NC(=O)c3cccnc3)cc2Cl)CC1 [Compound 14]
IC50 [1]: < 0.802 µM
IC50 [2]: > 128 µM
IC50 [3]: 12.8 µM

COc1ccc(Nc2nc(NCCCO)c3ccccc3n2)cc1 [Compound 24]
IC50 [1]: 1.1 µM
IC50 [2]: > 128 µM
IC50 [3]: > 128 µM

Cc1ccccc1C(=O)N1CCN(c2ccc(NC(=O)c3ccco3)cc2Cl)CC1 [Compound 13]
IC50 [1]: 3.5 µM
IC50 [2]: > 128 µM
IC50 [3]: 18 µM
